# Tested on: pro-inflammatory cytokines such as IL-6, IL-1 beta, TNF-alpha and MIP-1 beta
# Assay: Effect of unconjugated components on pro-inflammatory cytokines
# Assay type: cell-based
# Settings: even at high doses
smiles,measurement,value
N[C@H]1C(O)O[C@H](CO)[C@@H](O)[C@@H]1O (stereo partly shown) [glucosamine],"effect on pro-inflammatory cytokines such as IL-6, IL-1 beta, TNF-alpha and MIP-1 beta",no effect
